Compound	melting point
C[Si](C)(C)CCOCn1cnc2c(-c3ccco3)nc(Cl)nc21	105.8 to 106.2 °C
C=CCNc1nc(-c2ccco2)c2ncn(COCC[Si](C)(C)C)c2n1	185.5 to 186 °C
CNc1nc(-c2ccco2)c2ncn(COCC[Si](C)(C)C)c2n1	160.1 to 160.8 °C
CN(C)c1nc(-c2ccco2)c2ncn(COCC[Si](C)(C)C)c2n1	81.5 to 82.2 °C
C[Si](C)(C)CCOCn1cnc2c(-c3ccco3)nc(NCCO)nc21	125.9 to 126.4 °C
COc1nc(-c2ccco2)c2ncn(COCC[Si](C)(C)C)c2n1	79.6 °C (dec.)
OCCNc1nc(-c2ccco2)c2nc[nH]c2n1 [Example 5, N-(2-Hydroxyethyl)-6-(2-furyl)-1H-purine-2-amine]	227.1 to 228.1 °C
CC(C)(C)OC(=O)n1cnc2c(-c3ccco3)nc(Cl)nc21 [Example 7, tert-Butyl 2-chloro-6-(2-furyl)-9H-purine-9-carboxylate]	> 305 °C (dec.)
Clc1nc(-c2ccco2)c2nc[nH]c2n1 [Example 8, 2-Chloro-6-(2-furyl)-1H-purine]	> 303 °C (dec.)
OC[C@H]1CCCN1c1nc(-c2ccco2)c2nc[nH]c2n1 [Example 9, (2R)-1-(6-(2-Furyl)-1H-purine-2-yl)-2-pyrrolidinemethanol]	130.9 to 131.5 °C
CSc1nc(-c2ccco2)c2ncn(C(=O)OC(C)(C)C)c2n1 [Example 12, tert-Butyl 6-(2-furyl)-2-methylthio-9H-purine-9carboxylate]	112 to 113 °C
CC(C)(C)OC(=O)n1cnc2c(-c3ccco3)nc(N)nc21 [Example 14, tert-Butyl 2-amino-6-(2-furyl)-9H-purine-9-carboxylate]	143.2 to 144.1 °C
C=CCNc1nc(-c2ccco2)c2nc[nH]c2n1 [Example 17, N-Allyl-6-(2-furyl)-1H-purine-2-amine]	158.7 to 160.1 °C
CNc1nc(-c2ccco2)c2nc[nH]c2n1 [Example 18, 6-(2-Furyl)-N-methyl-1H-purine-2-amine]	235 to 236 °C (dec.)
Nc1nc(-c2ccco2)c2ncn(C(=O)NC3CCCCC3)c2n1 [Example 19, 2-Amino-N-cyclohexyl-6-(2-furyl)-9H-purine-9-carboxamide]	177.6 to 178.2 °C
CC(C)COC(=O)n1cnc2c(-c3ccco3)nc(N)nc21 [Example 20, 2-Methylpropyl 2-amino-6-(2-furyl)-9H-purine-9-carboxylate]	> 300 °C (dec.)
CC(C)(C)NC(=O)n1cnc2c(-c3ccco3)nc(N)nc21 [Example 21, 2-Amino-N-tert-butyl-6-(2-furyl)-9H-purine-9-carboxamide]	295 °C (dec.)
Nc1nc(-c2ccco2)c2ncn(C(=O)Oc3ccccc3)c2n1 [Example 22, Phenyl 2-amino-6-(2-furyl)-9H-purine-9-carboxylate]	> 300 °C (dec.)
O=C(Nc1ccccc1)Nc1nc(-c2ccco2)c2nc[nH]c2n1 [Example 23, N-(6-(2-Furyl)-1H-purine-2-yl)-N'-phenylurea]	> 330 °C (dec.)
CCNC(=O)n1cnc2c(-c3ccco3)nc(N)nc21 [Example 24, 2-Amino-N-ethyl-6-(2-furyl)-9H-purine-9-carboxamide]	> 280 °C (dec.)
CC(C)(C)c1ccc(S(=O)(=O)n2cnc3c(-c4ccco4)nc(N)nc32)cc1 [Example 27, 9-(4-tert-Butylphenylsulphonyl)-6-(2-furyl)-9H-purine-2-amine]	238.7 to 239.2 °C
Nc1nc(-c2ccco2)c2ncn(C(=O)C3CCCCC3)c2n1 [Example 28, 9-Cyclohexylcarbonyl-6-(2-furyl)-9H-purine-2-amine]	> 300 °C (dec.)
Nc1nc(-c2ccco2)c2ncn(C(=O)N3CCCC3)c2n1 [Example 29, 6-(2-Furyl)-9-(1-pyrrolidinylcarbonyl)-9H-purine-2-amine]	> 300 °C (dec.)
CC(C)NC(=O)n1cnc2c(-c3ccco3)nc(N)nc21 [Example 30, 2-Amino-6-(2-furyl)N-isopropyl-9H-purine-9-carboxamide]	> 300 °C (dec.)
O=C(NC1CCCCC1)n1cnc2c(-c3ccco3)nc(Cl)nc21 [Example 31, 2-Chloro-N-cyclohexyl-6-(2-furyl)-9H-purine-9-carboxamide]	177.4 to 177.8 °C
CC(C)CC(=O)n1cnc2c(-c3ccco3)nc(N)nc21 [Example 33, 6-(2-Furyl)-9-(3-methylbutyryl)-9H-purine-2-amine]	175.4 to 176.1 °C
CC(=O)n1cnc2c(-c3ccco3)nc(N)nc21 [Example 34, 9-Acetyl-6-(2-furyl)-9H-purine-2-amine]	> 300 °C (dec.)

Compound	melting point
Cc1ccc(S(=O)(=O)n2cnc3c(-c4ccco4)nc(N(C)C)nc32)cc1 [Example 56, N,N-Dimethyl-6-(2-furyl)-9-(4-methylphenylsulphonyl)-9H-purine-2-amine]	212.6 to 213 °C
CCOC(=O)Cn1cnc2c(-c3ccco3)nc(N(C)C)nc21 [Example 71, Ethyl 2-dimethylamino-6-(2-furyl)-9H-purine-9-acetate]	180.6 to 181.8 °C
CCOC(=O)Cn1cnc2c(-c3ccco3)nc(-c3ccco3)nc21 [Example 72, Ethyl 2,6-bis(2-furyl)-9H-purine-9-acetate]	314 °C
Nc1nc(-c2ccco2)c2ncn(CC(=O)O)c2n1 [Example 73, 2-Amino-6-(2-furyl)-9H-purine-9-acetic acid]	> 300 °C (dec.)
CC(C)(C)OC(=O)n1cnc2c(-c3cccs3)nc(N)nc21 [Example 78, tert-Butyl 2-amino-6-(2-thienyl)-9H-purine-9-carboxylate]	> 250 °C (dec.)
Nc1nc(-c2ccco2)c2ncn(CC(=O)Nc3ccccc3)c2n1 [Example 85, 2-Amino-6-(2-furyl)-N-phenyl-9H-purine-9-acetamide]	289.1 to 289.7 °C
Nc1nc(-c2ccco2)c2ncn(CC(=O)NCc3ccccc3)c2n1 [Example 86, 2-Amino-N-benzyl-6-(2-furyl)-9H-purine-9-acetamide]	287.2 to 287.8 °C
NC(=O)Cn1cnc2c(-c3ccco3)nc(N)nc21 [Example 87, 2-Amino-6-(2-furyl)-9H-purine-9-acetamide]	321.5 to 321.6 °C
Nc1nc(-c2ccco2)c2ncn(CC(=O)N3CCCC3)c2n1 [Example 88, 6-(2-Furyl)-9-(2-oxo-2-(1-pyrrolidinyl)ethyl)-9H-purine-2-amine]	283.6 to 283.7 °C
CNC(=O)Cn1cnc2c(-c3ccco3)nc(N)nc21 [Example 89, 2-Amino-6-(2-furyl)-N-methyl-9H-purine-9-acetamide]	290.2 to 291.6 °C
Cc1nc(-c2nc(N)nc3[nH]cnc23)no1 [Example 90, 6-(5-Methyl-[1,2,4]-oxadiazol-3-yl)-1H-purine-2-amine]	> 200 °C (dec.)
Nc1nc(-c2ccco2)c2ncn(CC(=O)NCCO)c2n1 [Example 96, 2-Amino-6-(2-furyl)-N-(2-hydroxyethyl)-9H-purine-9-acetamide]	> 250 °C (dec.)
CN1CCN(C(=O)Cn2cnc3c(-c4ccco4)nc(N)nc32)CC1 [Example 97, 6-(2-Furyl)-9-(2-oxo-2-(4-methyl-1-piperazinyl)ethyl)-9H-purine-2-amine]	> 270 °C (dec.)
Nc1nc(-c2ccco2)c2ncn(CC(=O)NCc3ccccn3)c2n1 [Example 119, 2-Amino-6-(2-furyl)-N-(2-pyridylmethyl)-9H-purine-9-acetamide]	238.3 to 238.4 °C
Nc1nc(-c2cc3ccccc3o2)c2nc[nH]c2n1 [Example 120, 6-(Benzofuran-2-yl)-1H-purine-2-amine]	310 to 310.3 °C
Nc1nc(-c2ccco2)c2ncn(CC(=O)Nc3ccccn3)c2n1 [Example 122, 2-Amino-6-(2-furyl)-N-(2-pyridyl)-9H-purine-9-acetamide]	242.5 to 243.6 °C
Nc1nc(-c2ccco2)c2ncn(CC(=O)NCCc3ccccc3)c2n1 [Example 123, 2-Amino-6-(2-furyl)-N-(2-phenylethyl)-9H-purine-9-acetamide]	247.3 to 247.4 °C
CCCNC(=O)Cn1cnc2c(-c3ccco3)nc(N)nc21 [Example 124, 2-Amino-6-(2-furyl)-N-n-propyl-9H-purine-9-acetamide]	258.7 to 260.1 °C
Nc1nc(-c2cc3ccccc3o2)c2ncn(C(=O)NCc3ccccc3)c2n1 [Example 128, 2-Amino-6-(benzofuran-2-yl)-N-benzyl-9H-purine-9-carboxamide]	> 250 °C (dec.)
Nc1nc(-c2ccc(Cl)s2)c2ncn(C(=O)NCc3ccccc3)c2n1 [Example 130, 2-Amino-N-benzyl-6-(5-chloro-2-thienyl)-9H-purine-9-carboxamide]	194 to 195 °C (dec.)
Cn1cccc1-c1nc(N)nc2[nH]cnc12 [Example 133, 6-(1-Methyl-1H-pyrrol-2-yl)-1H-purine-2-amine]	> 240 °C (dec.)
Cn1cccc1-c1nc(N)nc2c1ncn2C(=O)NCc1ccccc1 [Example 134, 2-Amino-N-benzyl-6-(1-methyl-1H-pyrrol-2-yl)-9H-purine-9-carboxamide]	> 230 °C (dec.)
Nc1nc(-c2cncs2)c2nc[nH]c2n1 [Example 137, 6-(5-Thiazolyl)-1H-purine-2-amine]	300 °C (dec.)
Cc1ccccc1NC(=O)Cn1cnc2c(-c3ccco3)nc(N)nc21 [Example 140, 2-Amino-6-(2-furyl)-N-(2-methylphenyl)-9H-purine-9-acetamide]	299.2 to 299.3 °C
Nc1nc(-c2ccco2)c2ncn(CC(=O)Nc3ccncc3)c2n1 [Example 142, 2-Amino-6-(2-furyl)-N-(4-pyridyl)-9H-purine-9-acetamide]	281.3 to 283.2 °C
Nc1nc(-c2ccco2)c2ncn(CC(=O)Nc3cccnc3)c2n1 [Example 143, 2-Amino-6-(2-furyl)-N-(3-pyridyl)-9H-purine-9-acetamide]	285.6 to 286.4 °C
Nc1nc(-c2ccco2)c2ncn(CC(=O)NCc3ccc(Cl)cc3)c2n1 [Example 144, 2-Amino-N-(4-chlorobenzyl)-6-(2-furyl)-9H-purine-9-acetamide]	277 °C (dec.)
